From patent US7470707B2, “Crystalline monohydrate clopidogrel naphthalenedisulfonate and process of preparation” (Hanmi Pharm. Co., Ltd, priority 2004, dated 2008)
Where a name gives a salt, the structure may show the parent alone.

Columns and labels:
[1] = orally administered to rat; cited from earlier work
[2] = 60° C. temperature and 75% relative humidity; resulting in gum type or liquefied form
Description: European Patent No. 281,459 B1 and U.S. Pat. No. 4,847,265 disclose a number of acid addition salts of clopidogrel prepared using various inorganic or organic acids.

Row | Compound | LD50 [1] | Hygroscopicity [2]
1 | O=S(=O)(O)c1cccc2c(S(=O)(=O)O)cccc12 [1,5-naphthalenedisulfonic acid] | 2,420 mg/kg | –
2 | Br [hydrobromide] | – | highly hygroscopic
3 | hydrochloride | – | highly hygroscopic
